# Assay results as given in publication PMC5770468, “Cardiac glycoside/aglycones inhibit HIV-1 gene expression by a mechanism requiring MEK1/2-ERK1/2 signaling” (Scientific Reports, 2018).
# What was measured:
# HIV-1 Tat (p16/p14) = assay: Immunoblot of HIV-1 Tat (p16/p14) in HeLa rtTA-HIV-ΔMls cells; type: cell-based; details: ~IC80 of CS, relative to DMSO (+Dox)
# Method: Figure 3 CSs reduce expression of essential HIV-1 structural and regulatory proteins. HeLa rtTA-HIV-ΔMls cells were treated with ~IC80s of CSs (per Methods), 100 nM of RIDK-21 or -27, or DMSO for 4 h prior to Dox induction for 20 h as indicated. Cell extracts were analyzed by immunoblot of (a) HIV-1 structural proteins: Env (gp160/gp120) and Gag (p41/p24), and (b–d) viral regulatory factors: Rev (p19, b) and Tat (p16/p14, c,d). (d) Graph quantitating Tat expression. Results from (a–d) are from n ≥ 3, mean, s.e.m. […] (a and d) Lanes were cropped and assembled from the same blot per box from Supplementary Figure S4a,b and c, respectively.
# To monitor HIV-1 gene expression or replication, Gag release into cell culture supernatants were assayed by ELISA using a p24^CA antigen capture assay kit (AIDS & Cancer Virus Program, NCI-Frederick, Frederick, MD USA). […] For analysis of HIV-1 and SR protein expression (and phosphorylation states with calf intestinal alkaline phosphatase treatments), cells were lysed and analyzed by western blot as previously outlined. […] Activation of MAPKs was determined by western blot quantitation and calculation of phospho/total protein levels. […] Stain-Free™ gels were casted and proteins were detected as described in 10% TGX-Stain-Free FastCast Acrylamide Kit from Bio-Rad (#161-0183). […]
# HIV-1 gene expression = HIV-1 gene expression in CD4+ T-cell line 24ST1NLESG, p24CA ELISA; type: cell-based, HIV-1 (pNL4-3); details: PMA induced, 24 h, p24CA ELISA of supernatants
# Method: Drug/compounds were tested for effects on HIV-1 gene expression using inducible Tet-ON HIV-1 cell lines [HeLa rtTA-HIV-ΔMls or rtTA-HIV(Gag-GFP)] containing a HIV-1 (LAI) provirus activatable by Dox or tetracycline transactivator (tTA)[69]. The rtTA-HIV-ΔMls provirus was modified and used as previously reported[9]–[11],[70]. The rtTA-HIV(Gag-GFP) provirus was generated by deletion of the PR and RT coding regions within pol and insertion of GFP to the 3′ of gag, creating GFP fused to the C-terminal of Gag. After 4 h of drug/compound treatment, HIV-1 gene expression was activated with Dox (2 μg/mL) or tTA (described below). Equal concentrations of DMSO were present in each experiment. After ~20 h, cells and media were harvested to monitor the effects of drug/compound treatments as described below. HIV-1 gene expression was quantified via p24^CA ELISA or monitoring Gag-GFP fluorescence in cells as described below. In parallel, cell viability of treatments were assessed by XTT assay (Sigma-Aldrich, #TOX2). […]
# treatment of 24ST1NLESG cells (n ≥ 4, mean, s.e.m.). […] Cell lysates were analyzed by western blot with antibodies specific for (c) HIV-1 structural protein, Gag, and (d) viral regulatory factor, Tat. […]
SMILES,p16 Tat expression (HIV-1 Tat (p16/p14)),HIV-1 gene expression in 24ST1NLESG cells (HIV-1 gene expression)
C[C@]12CC[C@H](O)C[C@H]1CC[C@@H]1[C@@H]2CC[C@]2(C)[C@@H](C3=CC(=O)OC3)CC[C@]12O [Digitoxigenin],57 % of control,–
C[C@H]1O[C@@H](O[C@H]2[C@@H](O)C[C@H](O[C@H]3[C@@H](O)C[C@H](O[C@H]4CC[C@@]5(C)[C@H](CC[C@@H]6[C@@H]5CC[C@]5(C)[C@@H](C7=CC(=O)OC7)CC[C@]65O)C4)O[C@@H]3C)O[C@@H]2C)C[C@H](O)[C@@H]1O [Digitoxin],–,Dose-dependent inhibition
